In US20060182726A1, “Immunomodulating compositions, processes for their production and uses therefor” (The University of Queensland, priority 2002, published 2006):
Where a SMILES comes first, the peptide text is derived from it. The star is where a group is joined. Cbz = O=C(OCc1ccccc1)*; OtBu = CC(C)(C)O*

Legend:
[1] = tested on: NF-κB subunits; experiment: Immunoblot of nuclear and cytoplasmic extracts of BMDCs for NF-κB subunits; format: cell-based; conditions: murine BM precursors 6 days with GM-CSF and IL-4 in the presence of BAY
Experimental: To independently assess the relationship between RelB nuclear translocation and tolerance induction, BMDCs were generated in the presence or absence of the compound BAY 11-7082 (BAY). […] Murine BM precursors were incubated for 6 days with GM-CSF and IL-4 to produce BMDCs, in the presence or absence of BAY. All NF-κB subunits were demonstrable in BMDCs generated in the absence of BAY, and were present in both nuclear and cytoplasmic extracts (FIG. 2a). […] However, CD86 was expressed at higher levels in BAY-treated DCs than RelB-deficient DCs. […]
Nuclear and cytoplasmic extracts were prepared as previously described (Pettit et al., 1997) and protein estimations carried out using a Protein Assay kit (Bio-Rad, Hercules, Calif.). […] Following transfer to nitrocellulose (Amersham. Sussex, England), membranes were immunoblotted with either anti-RelB (sc-226), anti-p50 (sc-7178), anti-c-Rel, anti-RelA, or anti-p52 antibodies (all from Santa Cruz Biotechnology) followed by sheep anti-rabbit HRP-conjugated Ig (Silenus, Hawthorn, Australia) and then detected by enhanced chemiluminescence (ECL, Life Technologies, MO, USA) according to the manufacturer's instructions (Amersham).

[2] = tested on: BMDCs; experiment: Cell surface marker expression, yield and viability of murine BMDCs generated with BAY (flow cytometry); format: cell-based
Experimental: To independently assess the relationship between RelB nuclear translocation and tolerance induction, BMDCs were generated in the presence or absence of the compound BAY 11-7082 (BAY). […] Murine BM precursors were incubated for 6 days with GM-CSF and IL-4 to produce BMDCs, in the presence or absence of BAY. All NF-κB subunits were demonstrable in BMDCs generated in the absence of BAY, and were present in both nuclear and cytoplasmic extracts (FIG. 2a). […] However, CD86 was expressed at higher levels in BAY-treated DCs than RelB-deficient DCs. […] The ability of adoptively-transferred BAY-treated DCs to prime an mBSA-specific T cell proliferative response in naïve syngeneic mice when pulsed with the antigen mBSA was reduced, compared with mBSA-pulsed untreated BMDCs, or immunisation with mBSA and CFA (FIG. 2c).
According to the inventors' experience, every new batch of BAY needs to be titrated. The final concentration for mouse BMDC cultures may range between 2 and 15 μM. Since tolerance induction correlates precisely with CD40 expression by the DC, varying concentrations of BAY are added to BM DC cultures. At day 6-8, yield is check and viability test using PI and CD40 expression by FACS. […]
BMDCs were incubated for 30 min on ice with anti-CD86-FITC (GL1, PharMingen, San Diego, Calif.), anti-CD11c-PE (HL3, PharMingen), anti-CD11b-PE (M1/70, PharMingen), F4/80-PE (Serotec, Raleigh, N.C.), CD8α-PE (53-6.7, PharMingen), CD3-PE (17A2, PharMingen), or with anti-CD40 (3/23, PharMingen), anti-CD19 (1D3, American Type Culture Collection, ATCC), anti-Ly6-g and c (Gr1, RB6-BC5), anti-CD45R (B220, RA3-6B2, each a gift from G. Hill, Queensland Institute for Medical Research, Brisbane, Q1d), anti-MHC class I and anti-MHC class II (2G9, PharMingen), followed by biotinylated rabbit anti-rat Ig (DAKO, CA) and then streptavidin-FITC (DAKO). After washing, cells were analyzed using a FACScalibur (Becton Dickinson, San Jose, Calif.). Intracellular cytokine production was measured in lymphocytes by flow cytometric staining as described, with minor modifications (Sander et al., 1991). […]

[3] = tested on: RelB; experiment: RelB DNA binding ELISA on nuclear extracts of monocyte-derived DC; format: cell-based; conditions: human PB monocytes 48 h with GM-CSF and IL-4, 8 μM BAY 11-7082
Experimental: FIG. 7 is a graphical representation showing that nuclear extracts from BAY-treated monocyte-derived DC (MDDC) lack RelB-DNA binding and are unresponsive to LPS. MDDC were generated for 48 h from PB monocytes in the presence of GM-CSF and IL-4 in the presence (BAY DC) or absence (control DC) of 8 μM BAY, then stimulated with 1 μg/mL LPS for 24 hr. Nuclear extracts were prepared and analysed for NFkB DNA binding by ELISA.
Human PB monocytes were purified from PBMC by immunomagnetic selection using anti-CD14. They were incubated for 48 h in the presence of 800 U/mL each GM-CSF and IL-4 in RPMI and 10% FCS in the presence or absence of 8 μM BAY 11-7082. Nuclear extracts were prepared and RelB DNA binding was assessed using ELISA, as previously described (O'Sullivan and Thomas, 2002). […]
p50 and RelB DNA binding was detected by ELISA using a Mercury Transfactor p50 Kit (Clontech, Calif.). 10 μg of nuclear extract were bound to wells coated with NF-κB consensus oligonucleotide then incubated with either anti-RelB (sc-226) or anti-p50 (sc-7178), followed by anti-rabbit […] Ig (Silenus) and then detected by measuring color development of TMB at 650 nm using a Multiskan plate reader (Labsystems) (O'Sullivan and Thomas, 2002).

[4] = tested on: human monocyte-derived DC; experiment: Phenotype of human monocyte-derived DC by flow cytometry; format: cell-based; conditions: human monocytes 48 hours, GM-CSF, IL-4; 10 κM BAY11-7082 or 2.5 or 10 μM PSI; relative to immature DC
Experimental: FIG. 8 is a graphical representation showing that modified human DC lack CD40 compared to immature DC. MDDC were generated for 48 h from PB monocytes in the presence of GM-CSF and IL-4 in the presence (modified DC) or absence (immature DC) of BAY, then stained for various cell surface markers and analysed by flow cytometry.
FIG. 9 is a graphical representation showing that modified human DC are unresponsive to CD40L. MDDC were generated for 48 h from PB monocytes in the presence of GM-CSF and IL-4 in the presence (modified DC) or absence (immature DC) of BAY, washed then incubated with or without 50 ng/ml soluble CD40L. Cells were then stained for CD86 and HLA-DR and analysed by flow cytometry.
FIG. 22 is a graphical representation showing the phenotype of NF-κB^− dendritic cells is reproducible with different NF-κB inhibitors. Dendritic cells were generated from human monocytes for 48 hours in the presence of GM-CSF, IL-4 and in the presence or absence of either 10 μM BAY11-7082 or 2.5 or 10 μM PSI (N-benzyloxycarbonyl-Ile-Glu(O-tert-butyl)-Ala-leucinal). Cells were then stained with anti-CD40, anti-CD86, anti-HLA-DR and anti-MHC class I mAb (green lines) and compared with isotype control staining (purple) by flow cytometry.
Human PB monocytes were purified from PBMC by immunomagnetic selection using anti-CD14. They were incubated for 48 h in the presence of 800 U/mL each GM-CSF and IL-4 in RPMI and 10% FCS in the presence or absence of 8 μM BAY 11-7082. Nuclear extracts were prepared and RelB DNA binding was assessed using ELISA, as previously described (O'Sullivan and Thomas, 2002). […] In keeping with the lack of CD40 expression, modified DC were unresponsive to 24 h incubation with 500 ng/mL soluble CD40 ligand trimer (sCD40L, Immunex, Seattle Wash.).
The present inventors examined whether the phenotype of the described dendritic cells that are capable of inducing tolerance when transferred in vivo, is reproducible when dendritic cells are generated with various NT-κB^− inhibitors. Dendritic cells were generated from human monocles for 48 hours in the presence of GM-CSF, IL-4 and in the presence or absence of either 10 […] of the IκB phosphorylation inhibitor BAY11-7082 or 2.5 or 10 μM of the proteasome inhibitor PSI (N-benzyloxycarbonyl-Ile-Glu(O-tert-butyl)-Ala-leucinal).

[5] = tested on: NF-κB; conditions: Pierce et al., 1997; cited from earlier work
[6] = tested on: RelB; conditions: LPS-treated monocyte-derived dendritic cells; cited from earlier work
[7] = murine BMDCs generated in the presence of BAY

Structure (SMILES)	NFκB subunit immunoreactivity in nuclear and cytoplasmic extracts [1]	toxicity: yield and viability of BM DC cultures ([2]; concentrations higher than the minimum that suppresses CD40)	MHC class I and class II expression [2, 7]	cell surface CD40 expression [2, 7]	RelB nuclear DNA binding activity [3]	CD40 expression [4]	CD86 and MHC class I expression [4]	HLA-DR expression [4]	TNF-α-stimulated NF-κB translocation [5]	nuclear RelB translocation [6]
Cc1ccc(S(=O)(=O)/C=C/C#N)cc1 [BAY 11-7082]	in the cytoplasm but not the nucleus	more toxic and affect yield and viability	expressed reduced levels of MHC class I and class II	lacked cell surface CD40 expression	lacked RelB nuclear DNA binding activity	CD40 expression was suppressed	CD86 and MHC class I expression were not changed	HLA-DR was reduced	block TNF-α-stimulated NF-κB translocation through inhibition of IκB phosphorylation	–
CC[C@H](C)[C@H](NC(=O)OCc1ccccc1)C(=O)N[C@@H](CCC(=O)OC(C)(C)C)C(=O)N[C@@H](C)C(=O)N[C@H](C=O)CC(C)C [PSI, N-benzyloxycarbonyl-Ile-Glu(O-tert-butyl)-Ala-leucinal] (Cbz-IE(OtBu)AL-aldehyde)	–	–	–	–	–	CD40 expression was suppressed	CD86 and MHC class I expression were not changed	HLA-DR was reduced	–	–
C[S+]([O-])c1ccc(-c2nc(-c3ccncc3)c(-c3ccc(F)cc3)[nH]2)cc1 (stereo not shown) [SB203580]	–	–	–	–	–	–	–	–	–	blocks nuclear RelB translocation
